The supplement of paper PMC3974653
Structures can show the parent of a compound that is named as a salt.

Test system: MTT (mouse pheochromocytoma)
Experiment: IC50 of cell viability (ATP content)
Details: (24 or 48 h)
How it was run: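 Each well of a white 1536-well plate received 5 µl of MTT mouse pheochromocytoma cells at 200,000 cells/ml in DMEM containing 5% FBS and 1% horse serum. After overnight culture at 37°C, 5% CO2, cells were exposed for 24 or 48 hrs to 23 nl of library compound in DMSO, pinned at 8 final concentrations from 0.5 nM to 46 µM. CellTiter-Glo luminescence was read after 15 minutes, and IC50 was obtained from a four-parameter logistic fit of signals normalised to positive-control and DMSO wells.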

CC(C)COC(=O)c1ccc(N)cc1 [Isobutamben]
IC50 of cell viability: > 46 µM

Cc1cc(C(=O)NNCc2ccccc2)no1 [Isocarboxazid]
IC50 of cell viability: > 46 µM

Clc1ccc([C@H](Cn2ccnc2)OCc2c(Cl)cccc2Cl)c(Cl)c1 [Isoconazole]
IC50 of cell viability: > 46 µM

CC[C@H](NC(C)C)[C@H](O)c1ccc(O)c(O)c1.C[S+](=O)([O-])O [Isoetharine mesylate salt]
IC50 of cell viability: > 46 µM

C/C=C/c1ccc(O)c(OC)c1 [Isoeugenol]
IC50 of cell viability: > 46 µM

CC(=O)OCC(=O)[C@@]1(O)CC[C@@H]2[C@H]3CC\C4=C\C(=O)\C=C/[C@]4(C)[C@]3(F)[C@@H](O)C[C@@]12C [Isoflupredone acetate]
IC50 of cell viability: > 46 µM

CN[C@@H](C)CC\C=C(/C)C.CN[C@@H](C)CC\C=C(/C)C.O[C@@H]([C@@H](O)[C@@H](O)C(O)=O)[C@H](O)C(O)=O [Isometheptene mucate]
IC50 of cell viability: > 46 µM

NNC(=O)c1ccncc1 [Isoniazid]
IC50 of cell viability: > 46 µM

CC(C)[N+](C)(CCC(C(N)=O)(c1ccccc1)c1ccccc1)C(C)C [Isopropamide iodide]
IC50 of cell viability: > 46 µM

C[C@H](N[C@@H](C)COc1ccccc1)[C@H](O)c1ccc(O)cc1 [Isoxsuprine hydrochloride]
IC50 of cell viability: > 46 µM

COC(=O)\C1=C(/C)N\C(=C(/[C@H]1C2=CC=CC3=NON=C23)C(=O)OC(C)C)C [Isradipine]
IC50 of cell viability: > 46 µM

CO[C@H]1[C@@H](O[C@@H]2O[C@@H](C)[C@@H](O[C@H]3C[C@](C)(O)[C@H](OC(=O)CC(C)C)[C@H](C)O3)[C@@H](N(C)C)[C@H]2O)[C@H](CC=O)C[C@@H](C)[C@@H](O)/C=C\C=C/C[C@@H](C)OC(=O)C[C@H]1OC(C)=O [Josamycin]
IC50 of cell viability: > 46 µM

C=C(C)[C@H]1CN[C@H](C(=O)O)[C@H]1CC(=O)O [KAINIC ACID]
IC50 of cell viability: > 46 µM

NCC1O[C@@H](OC2C(N)C[C@H](N)[C@@H](O[C@H]3OC(CO)C(O)C(N)C3O)C2O)C(N)C(O)C1O (some centres undefined) [KANAMYCIN B]
IC50 of cell viability: > 46 µM

O=C(c1ccc(F)cc1)C1CCN(CCn2c(=O)[nH]c3ccccc3c2=O)CC1 [KETANSERIN]
IC50 of cell viability: > 46 µM

CN1CCC(=C2c3ccccc3CC(=O)c3sccc32)CC1 [KETOTIFEN]
IC50 of cell viability: > 46 µM

OC\C1=C\C(=O)\C(=C/O1)O [KOJIC ACID]
IC50 of cell viability: > 46 µM

NC[C@@H]1O[C@@H](O[C@H]2[C@@H](O)[C@H](O[C@@H]3O[C@@H](CO)[C@H](O)[C@H](N)[C@@H]3O)[C@@H](N)C[C@H]2N)[C@H](O)[C@H](O)[C@@H]1O [Kanamycin A sulfate]
IC50 of cell viability: > 46 µM

CC(=O)N1CCN(c2ccc(OC[C@@H]3CO[C@@](Cn4ccnc4)(c4ccc(Cl)cc4Cl)O3)cc2)CC1 [Ketoconazole]
IC50 of cell viability: > 46 µM

C[C@@H](C(=O)O)c1cccc(C(=O)c2ccccc2)c1 [Ketoprofen]
IC50 of cell viability: > 46 µM

O=C(c1ccccc1)c1ccc2n1CCC2C(=O)O (centres undefined) [Ketorolac tris salt]
IC50 of cell viability: > 46 µM

NC(CO)(CO)CO.O=C(c1ccccc1)c1ccc2n1CC[C@H]2C(=O)O [Ketorolac tromethamine]
IC50 of cell viability: > 46 µM

COC1=C2O\C(=C/C(=O)C2=C(OC)C3=C1OC=C3)C [Khellin]
IC50 of cell viability: > 46 µM

O=C1C=C(CO)OCC1=O [Kojic acid]
IC50 of cell viability: > 46 µM

N[C@@H](Cc1ccc(O)c(O)c1)C(=O)O [L-3,4-DIHYDROXYPHENYL-ALANINE]
IC50 of cell viability: > 46 µM

O=C(CO)[C@@H](O)[C@H](O)[C@@H](O)CO [L-(-)-Sorbose]
IC50 of cell viability: > 46 µM

N=C(N)NCCC[C@H](N)C(=O)O [L-Arginine]
IC50 of cell viability: > 46 µM

O=C1O[C@H]([C@@H](O)CO)C(O)=C1O [L-Ascorbic acid]
IC50 of cell viability: > 46 µM

CCOC(=O)[C@@H](N)CS [L-CYSTEINE ETHYLESTER HYDROCHLORIDE]
IC50 of cell viability: > 46 µM

N[C@@H](CCC(=O)O)C(=O)O [L-GLUTAMIC ACID]
IC50 of cell viability: > 46 µM

Cl.N[C@@H](Cc1c[nH]cn1)C(=O)O [L-Histidine hydrochloride]
IC50 of cell viability: > 46 µM

CNC(=N)NCCC[C@H](N)C(=O)O [L-NMMA]
IC50 of cell viability: > 46 µM

OCC1O[C@H](OC2C(CO)O[C@@](O)(CO)C2O)C(O)C(O)C1O (some centres undefined) [LACTULOSE]
IC50 of cell viability: > 46 µM

O=C(CS(=O)Cc1ccco1)NC/C=C/COc1cc(CN2CCCCC2)ccn1 (centres undefined) [LAFUTIDINE]
IC50 of cell viability: > 46 µM

CC(=O)O[C@H]1C[C@H](O[C@H]2[C@@H](O)CC(O[C@H]3[C@@H](O)C[C@H](O[C@H]4CC[C@@]5(C)[C@H](CC[C@@H]6[C@@H]5CC[C@]5(C)[C@@H](C7=CC(=O)OC7)CC[C@]65O)C4)O[C@@H]3C)O[C@@H]2C)O[C@H](C)[C@H]1O[C@@H]1O[C@H](CO)[C@@H](O)[C@H](O)[C@H]1O (some centres undefined) [LANATOSIDE A]
IC50 of cell viability: > 46 µM

CC1O[C@@H](CC(O)[C@H]1O[C@H]2CC(O)[C@@H](O[C@H]3CC(OC(C)=O)[C@H](O[C@H]4OC(CO)C(O)C(O)C4O)[C@@H](C)O3)C(C)O2)OC5CC[C@]6(C)C(CCC7C6CC(O)[C@@]8(C)C(CC[C@@]78O)\C9=C\C(=O)OC9)C5 (some centres undefined) [LANATOSIDE C]
IC50 of cell viability: > 46 µM

N#C/C(=C1/SCC(c2ccccc2Cl)S1)n1ccnc1 (centres undefined) [LANOCONAZOLE]
IC50 of cell viability: > 46 µM

C[C@H](CN1CCCC1)C(=O)c1ccc(C(F)(F)F)cc1 [LANPERISONE HYDROCHLORIDE]
IC50 of cell viability: > 46 µM

C[S+](=O)([O-])CCNCc1ccc(-c2ccc3ncnc(Nc4ccc(OCc5cccc(F)c5)c(Cl)c4)c3c2)o1 [LAPATINIB TOSILATE HYDRATE]
IC50 of cell viability: > 46 µM

CCCCCCCCCCCC(=O)N(CCO)CCO [LAURIC DIETHANOLAMIDE]
IC50 of cell viability: > 46 µM

CCCCCCCCCCCCOCCCN [LAURIXAMINUM]
IC50 of cell viability: > 46 µM

NCCNC(=O)c1ccc(Cl)cn1 [LAZABEMIDE HYDROCHLORIDE]
IC50 of cell viability: > 46 µM

CN(C)[C@@H](Cc1ccccc1)c1ccccc1 [LEFETAMINE HYDROCHLORIDE]
IC50 of cell viability: > 46 µM

COC(=O)\C1=C(/C)N\C(=C(/C1C2=C(Cl)C(=CC=C2)Cl)C(=O)OC(C)C)COC(N)=O (centres undefined) [LEMILDIPINE]
IC50 of cell viability: > 46 µM

Nc1cccc2c1CN(C1CCC(=O)NC1=O)C2=O (centres undefined) [LENALIDOMIDE]
IC50 of cell viability: > 46 µM

COC(=O)C1=C(C)NC(C)=C(C(=O)OC(C)(C)CN(C)CCC(c2ccccc2)c2ccccc2)C1c1cccc([N+](=O)[O-])c1 (centres undefined) [LERCANIDIPINE HYDROCHLORIDE]
IC50 of cell viability: > 46 µM

COC(=O)CC[C@H](N)C(=O)O [LEUCIGLUMERUM]
IC50 of cell viability: > 46 µM

C=CCN1CC[C@]23CCCCC2[C@H]1Cc1ccc(O)cc13 (some centres undefined) [LEVALLORPHAN]
IC50 of cell viability: > 46 µM

Clc1cccc(C(c2ccc3nc[nH]c3c2)n2ccnc2)c1 (centres undefined) [LIAROZOLE]
IC50 of cell viability: > 46 µM

CCN(CC)CC(=O)Nc1c(C)cccc1C [LIDOCAINE]
IC50 of cell viability: > 46 µM

CC1(C)OC2CC(=O)OC[C@@]23C1CC(=O)[C@]1(C)C3CC[C@@]2(C)C(c3ccoc3)OC(=O)C3O[C@@]321 (some centres undefined) [LIMONIN]
IC50 of cell viability: > 46 µM

ClC1C(Cl)C(Cl)C(Cl)C(Cl)C1Cl (centres undefined) [LINDANE]
IC50 of cell viability: > 46 µM

CC/C=C\C/C=C\C/C=C\CCCCCCCC(=O)O [LINOLENIC ACID]
IC50 of cell viability: > 46 µM

O=C(O)COc1ccc(CCN[S+](=O)([O-])c2ccccc2)s1 [LINOTROBANUM]
IC50 of cell viability: > 46 µM

O=C(O)Cn1c(C(=O)Nc2nc(-c3ccccc3Cl)cs2)cc2ccccc21 [LINTITRIPTUM]
IC50 of cell viability: > 46 µM

CN1[C@@H](CC(=O)c2ccccc2)CCC[C@H]1C[C@H](O)c1ccccc1 [LOBELINE]
IC50 of cell viability: > 46 µM

O=C([O-])c1ccccc1Nc1cc(Cl)ccc1C(=O)[O-] [LOBENZARIT DISODIUM]
IC50 of cell viability: > 46 µM

O=NN(CCCl)C(=O)NC1CCCCC1 [LOMUSTINE]
IC50 of cell viability: > 46 µM

Cc1cccc(C)c1OCC(=O)N[C@@H](Cc1ccccc1)[C@@H](O)C[C@H](Cc1ccccc1)NC(=O)[C@H](C(C)C)N1CCCNC1=O [LOPINAVIR]
IC50 of cell viability: > 46 µM

CCOC(=O)N1CCC(=C2c3ccc(Cl)cc3CCc3cccnc32)CC1 [LORATADINE]
IC50 of cell viability: > 46 µM

CCCCCN(CCCCC)C(=O)C(CCC(=O)[O-])NC(=O)c1ccc(Cl)c(Cl)c1.[Na+] (centres undefined) [LORGLUMIDE SODIUM]
IC50 of cell viability: > 46 µM

CCCCc1nc(Cl)c(CO)n1Cc1ccc(-c2ccccc2-c2nnn[nH]2)cc1 [LOSARTAN]
IC50 of cell viability: > 46 µM

N\C1=N\C2=C(N(CC=C)C(=O)N2C3OC(CO)C(O)C3O)/C(=O)N1 (centres undefined) [LOXORIBINUM]
IC50 of cell viability: > 46 µM

N#C/C(=C1/SC[C@@H](c2ccc(Cl)cc2Cl)S1)n1ccnc1 [LULICONAZOLE]
IC50 of cell viability: > 46 µM

CCCCN(CCCC)CC(O)c1cc(Cl)cc2c1-c1ccc(Cl)cc1/C2=C/c1ccc(Cl)cc1 (centres undefined) [LUMEFANTRINE]
IC50 of cell viability: > 46 µM

CC1=C[C@@H](O)CC(C)(C)[C@@H]1/C=C/C(C)=C/C=C/C(C)=C/C=C/C=C(C)/C=C/C=C(C)/C=C/C1=C(C)C[C@H](O)CC1(C)C [LUTEIN]
IC50 of cell viability: > 46 µM

CCCN1CCC[C@@H]2Cc3nc(N)ncc3C[C@H]21 [LY-163,502]
IC50 of cell viability: > 46 µM

CC(C)=CCC/C(C)=C/C=C/C(C)=C/C=C/C(C)=C/C=C/C=C(C)/C=C/C=C(C)/C=C/C=C(\C)CCC=C(C)C [LYCOPENE]
IC50 of cell viability: > 46 µM

C[C@@H](CCc1ccccc1)NC[C@H](O)c1ccc(O)c(C(N)=O)c1 [Labetalol hydrochloride]
IC50 of cell viability: > 46 µM
